Data reported in patent US12030904B2 (priority 2020, dated 2024).
Read-outs that look alike come from different tables or passages of the source.

Columns and labels:
[1] = system: Recombinant Respiratory Syncytial virus strain A2 containing the firefly luciferase reporter (RSV-Fluc); assay: microbe, parasite or virus in culture; type: cell-based; settings: human respiratory syncytial virus, NHBE
[2] = MT4 cytotoxicity (CC50); settings: human, MT4 cells
[3] = A549 cytotoxicity analysis (CellTiter-Glo); type: cell-based; settings: human, A549 cells
Method: The cytotoxicity of compounds was determined in A549 cells in the following manner. Compounds (40 nL) were spotted onto 384-well Grenier plates prior to seeding 5000 A549 cells/well in a volume of 40 μL culture medium. The plates were incubated at 37° C. for 48 hours with 5% CO2. On day 2, 40 μL of CellTiter-Glo (Promega) was added and mixed 5 times. Plates were read for luminescence on an Envision (PerkinElmer) and the CC50 (compound concentration for reducing 50% of luminescence signal as a measure of cell viability) were calculated using a nonlinear regression model (four parameters). Two experiments were performed with technical duplicates.

[4] = system: SARS-CoV-2; assay: microbe, parasite or virus in culture; type: cell-based
[5] = 72 h, read-out: RSV-Fluc EC50 (NHBE), NHBE cells, three days, Table 1
[6] = Severe acute respiratory syndrome coronavirus 2, 48 h, read-out: SARS-CoV-2 EC50
[7] = 72 h, read-out: RSV-Fluc EC50 (NHBE), NHBE cells, three days, Table 2
[8] = Severe acute respiratory syndrome coronavirus 2, Table 3, read-out: SARS-CoV-2 EC50
[9] = Severe acute respiratory syndrome coronavirus 2, read-out: SARS EC50

Row | SMILES | EC50 [1, 5] [nM] | CC50 ([2]; MT4 CC50, Table 1a) [nM] | CC50 at 48 h ([3]; 48 hours, Table 1) [nM] | EC50 [4, 6] [nM] | EC50 [1, 7] [nM] | EC50 ([1]; read-out: RSV EC50, Table 2a) [nM] | CC50 ([2]; MT4 CC50, Table 2a) [nM] | CC50 at 48 h ([3]; Table 3) [nM] | EC50 [4, 8] [nM] | EC50 [4, 9] [nM]
1 | CCCCCCCCCCCCCCCCCCOC[C@H](COP(=O)(O)OC[C@H]1O[C@@](C#N)(c2ccc3c(N)ncnn23)[C@H](O)[C@@H]1O)OCC1CCCCC1 [Example 3, ((2R,3S,4R,5R)-5-(4-aminopyrrolo[2,1-f][1,2,4]triazin-7-yl)-5-cyano-3,4-dihydroxytetrahydrofuran-2-yl)methyl ((R)-2-(cyclohexylmethoxy)-3-(octadecyloxy)propyl) hydrogen phosphate] | 120 | 14000 | 19000 | 340 |  |  |  |  |  | 
2 | CCCCCCCCCCCCCCCCCCOC[C@H](COP(=O)(O)OC[C@H]1O[C@@](C#N)(c2ccc3c(N)ncnn23)[C@H](O)[C@@H]1O)OCc1ccc(C(F)(F)F)cc1 [Example 11, ((2R,3S,4R,5R)-5-(4-aminopyrrolo[2,1-f][1,2,4]triazin-7-yl)-5-cyano-3,4-dihydroxytetrahydrofuran-2-yl)methyl ((R)-3-(octadecyloxy)-2-((4-(trifluoromethyl)benzyl)oxy)propyl) hydrogen phosphate] | 60 | 14500 | > 50000 | 350 |  |  |  |  |  | 
3 | CCCCCCCCCCCCCCCCCCOC[C@H](COP(=O)(O)OC[C@H]1O[C@@](C#N)(c2ccc3c(N)ncnn23)[C@H](O)[C@@H]1O)OCc1ccc(F)c(F)c1 [Example 14, ((2R,3S,4R,5R)-5-(4-aminopyrrolo[2,1-f][1,2,4]triazin-7-yl)-5-cyano-3,4-dihydroxytetrahydrofuran-2-yl)methyl ((R)-2-((3,4-difluorobenzyl)oxy)-3-(octadecyloxy)propyl) hydrogen phosphate] | 90 | 7190 | 13000 | 320 |  |  |  |  |  | 
4 | CCCCCCCCCCCCCCCCOC[C@H](COP(=O)(O)OC[C@H]1O[C@@](C#N)(c2ccc3c(N)ncnn23)[C@H](O)[C@@H]1O)OCc1ccccc1 [Example 5, ((2R,3S,4R,5R)-5-(4-aminopyrrolo[2,1-f][1,2,4]triazin-7-yl)-5-cyano-3,4-dihydroxytetrahydrofuran-2-yl)methyl ((R)-2-(benzyloxy)-3-(hexadecyloxy)propyl) hydrogen phosphate] | 50 | 6290 | 19000 | 480 |  |  |  |  |  | 
5 | CCCCCCCCCCCCCCCCCCOC[C@H](COP(=O)(O)OC[C@H]1O[C@@](C#N)(c2ccc3c(N)ncnn23)[C@H](O)[C@@H]1O)OCc1ccc(C#N)cc1 [Example 9, ((2R,3S,4R,5R)-5-(4-aminopyrrolo[2,1-f][1,2,4]triazin-7-yl)-5-cyano-3,4-dihydroxytetrahydrofuran-2-yl)methyl ((R)-2-((4-cyanobenzyl)oxy)-3-(octadecyloxy)propyl) hydrogen phosphate] | 50 | 1430 | 30000 | 270 |  |  |  |  |  | 
6 | CCCCCCCCCCCCCCCCCCOC[C@@H](COP(=O)(O)OC[C@H]1O[C@@](C#N)(c2ccc3c(N)ncnn23)[C@H](O)[C@@H]1O)OCc1ccccc1 [Example 18, ((2R,3S,4R,5R)-5-(4-aminopyrrolo[2,1-f][1,2,4]triazin-7-yl)-5-cyano-3,4-dihydroxytetrahydrofuran-2-yl)methyl ((S)-2-(benzyloxy)-3-(octadecyloxy)propyl) hydrogen phosphate] | 110 |  | > 50000 | 320 |  |  |  |  |  | 
7 | CCCCCCCCCCCCCCCCCCOC[C@H](COP(=O)(O)OC[C@H]1O[C@@](C#N)(c2ccc3c(N)ncnn23)[C@H](O)[C@@H]1O)OCc1ccc(-c2ccccc2)cc1 [Example 2, (R)-2-([1,1′-biphenyl]-4-ylmethoxy)-3-(octadecyloxy)propyl (((2R,3S,4R,5R)-5-(4-aminopyrrolo[2,1-f][1,2,4]triazin-7-yl)-5-cyano-3,4-dihydroxytetrahydrofuran-2-yl)methyl) hydrogen phosphate] | 350 | 14700 | > 50000 | 430 |  |  |  |  |  | 
8 | CCCCCCCCCCCCCCCCCCOC[C@H](COP(=O)(O)OC[C@H]1O[C@@](C#N)(c2ccc3c(N)ncnn23)[C@H](O)[C@@H]1OC(=O)C(C)C)OCc1ccccc1 [Example 12, (2R,3S,4R,5R)-5-(4-aminopyrrolo[2,1-f][1,2,4]triazin-7-yl)-2-(((((R)-2-(benzyloxy)-3-(octadecyloxy)propoxy)(hydroxy)phosphoryl)oxy)methyl)-5-cyano-4-hydroxytetrahydrofuran-3-yl isobutyrate] | 260 | 50000 | 50000 | 3200 |  |  |  |  |  | 
9 | CCCCCCCC/C=C\CCCCCCCCOC[C@H](COP(=O)(O)OC[C@H]1O[C@@](C#N)(c2ccc3c(N)ncnn23)[C@H](O)[C@@H]1O)OCc1cc(F)cc(C#N)c1 [Example 69, ((2R,3S,4R,5R)-5-(4-aminopyrrolo[2,1-f][1,2,4]triazin-7-yl)-5-cyano-3,4-dihydroxytetrahydrofuran-2-yl)methyl ((R)-2-((3-cyano-5-fluorobenzyl)oxy)-3-(((Z)-octadec-9-en-1-yl)oxy)propyl) hydrogen phosphate] |  |  |  |  | 24 | 23 | 730 | 860 | 150 | 150
10 | CCCCCCCCCCCCCCCCCCOC[C@H](COP(=O)(O)OC[C@H]1O[C@@](C#N)(c2ccc3c(N)ncnn23)[C@H](O)[C@@H]1O)OCc1ccc(OC)cc1 [Example 10, ((2R,3S,4R,5R)-5-(4-aminopyrrolo[2,1-f][1,2,4]triazin-7-yl)-5-cyano-3,4-dihydroxytetrahydrofuran-2-yl)methyl ((R)-2-((4-methoxybenzyl)oxy)-3-(octadecyloxy)propyl) hydrogen phosphate] | 60 | 3430 | 20000 | 300 |  |  |  |  |  | 
11 | CCCCCCCCCCCCCCCCCCOC[C@H](COP(=O)(O)OC[C@H]1O[C@@](C#N)(c2ccc3c(N)ncnn23)[C@H](O)[C@@H]1O)OCc1ccc2ccccc2c1 [Example 4, ((2R,3S,4R,5R)-5-(4-aminopyrrolo[2,1-f][1,2,4]triazin-7-yl)-5-cyano-3,4-dihydroxytetrahydrofuran-2-yl)methyl ((R)-2-(naphthalen-2-ylmethoxy)-3-(octadecyloxy)propyl) hydrogen phosphate] | 60 | 4170 | 17000 | 340 |  |  |  |  |  | 
12 | CCCCCCCCCCCCCCCCOC[C@H](COP(=O)(O)OC[C@H]1O[C@@](C#N)(c2ccc3c(N)ncnn23)[C@H](O)[C@@H]1O)OCc1cc(F)cc(C#N)c1 [Example 71, ((2R,3S,4R,5R)-5-(4-aminopyrrolo[2,1-f][1,2,4]triazin-7-yl)-5-cyano-3,4-dihydroxytetrahydrofuran-2-yl)methyl ((R)-2-((3-cyano-5-fluorobenzyl)oxy)-3-(hexadecyloxy)propyl) hydrogen phosphate] |  |  |  |  | 30 | 3 | 404 | 370 | 130 | 130
13 | CCCCCCCCCCCCCCCCCCCOC[C@H](COP(=O)(O)OC[C@H]1O[C@@](C#N)(c2ccc3c(N)ncnn23)[C@H](O)[C@@H]1O)OCc1cc(F)cc(C#N)c1 [Example 70, ((2R,3S,4R,5R)-5-(4-aminopyrrolo[2,1-f][1,2,4]triazin-7-yl)-5-cyano-3,4-dihydroxytetrahydrofuran-2-yl)methyl ((R)-2-((3-cyano-5-fluorobenzyl)oxy)-3-(nonadecyloxy)propyl) hydrogen phosphate] |  |  |  |  | 60 | 66 | 854 | 1100 |  | 
